{
  "source": "patent US11272841B2",
  "about": "“Indicator fluids, systems, and methods for assessing movement of substances within, to or from a cerebrospinal fluid, brain or spinal cord compartment of a cranio-spinal cavity of a human” (BRAINWIDESOLUTIONS AS, priority 2017, dated 2022)",
  "experiment": "Repeated standardized T1-weighted MRI: signal units (SU) in ROIs of CSF, venous space and brain tissue after intrathecal gadobutrol, iNPH versus reference patients (Tables 2-4, FIG. 14b, 16)",
  "type": "in vivo, human",
  "procedure": "The different features of Aspect 2 are based on novel in-vivo observations in humans. […] In the following paragraphs, these novel observations in humans are commented on in more detail. In these studies, the MRI contrast agent gadobutrol served as indicator fluid and MRI SUs were indication signals. MRI T1 weighted signal units were measured when gadobutrol was present within CSF after having been administered to the CSF compartment, and were compared with MR images having identical sequence parameter settings and with no gadobutrol present in CSF. […] With a MW of 605 Da, gadobutrol is a rather large molecule in comparison to the MW of water (H2O) molecule, which is 18 Da. Clearance of gadobutrol is then indicative of clearance of other substances with similar properties.\nWe explored both movement of the contrast agent within, to, and from the cranio-spinal cavity, including CSF, brain and spinal cord compartment, and from the cranio-spinal cavity to extra-cranial LNs. With gadobutrol present within CSF, blood level concentrations of contrast agents were determined at various time point. The repeated MRI acquisitions made it possible to create clearance curves for one or more pixels, defined by ROIs. ROIs were placed within CSF compartments, brain and spinal cord tissue compartments, and extracranial LN tissue compartments. By means of MRI, we could create graphic curves illustrating clearance of substances (clearance illustrating curves) for defined ROIs built up of a defied number of pixels for each individual. For details of said clearance curves, see FIG. 7. The establishment of clearance curves was dependent on repeated MRI acquisitions over a long period.\nUsing MRI SUs, we created clearance illustrating curves, see FIG. 7, for the individual patients as well as for groups of individuals. Tables 2-4 illustrate various examples of parameter values of the clearance illustrating curves.\nTable 2, as discussed with FIG. 2, illustrates how maximum increase in SUs varies between individuals and patient groups. Tables 3 and 4 compare such clearance curve parameters from two patient groups, namely iNPH and reference (i.e. control) patients, illustrating inter-individual differences and differences between patient groups. These patient groups represent no limitation of the invention as it may be used in various patient groups such as Alzheimer's and dementia in general, brain tumor (e.g. astrocytoma), multiple sclerosis and inflammatory brain disease, stroke (brain infarction or bleeds), sleep disturbances, neurodegenerative disease, CSF circulation disorders, traumatic brain injury, neurometabolic diseases, glaucoma, chronic headache and migraine, and in assessment of ageing in general.\nEven though perfect match of ROIs of repeated images may be difficult to obtain, the second aspect of the invention is facilitated by that image acquisition parameters at repeated MRI acquisitions are kept fixed and thus standardized. […] Further, to make best possible alignments of pixels, methods for alignment of repeated MRI acquisitions need to be implemented. Methods for alignment of repeated MRI images belong to prior art. Aids to improve alignment may incorporate landmark locations such as the cranial vault, pineal gland, and ventricular system.\nEach image acquisition lasted 6 minutes and 29 seconds.",
  "key": {"[1]": {"conditions": "Brain parenchyma: Frontal horn, Reference"}, "[2]": {"conditions": "Brain parenchyma: Frontal horn, iNPH"}, "[3]": {"conditions": "Brain parenchyma: Inferior frontal gyrus (IFG), Reference"}, "[4]": {"conditions": "Brain parenchyma: Inferior frontal gyrus (IFG), iNPH"}, "[5]": {"conditions": "Brain parenchyma: Pons, Reference"}, "[6]": {"conditions": "Brain parenchyma: Precentral gyrus, Reference"}, "[7]": {"conditions": "Brain parenchyma: Precentral gyrus, iNPH"}, "[8]": {"conditions": "Brain parenchyma: Thalamus, Reference"}, "[9]": {"conditions": "Brain parenchyma: Thalamus, iNPH"}, "[10]": {"conditions": "CSF space: 3rd Ventricle, Reference"}, "[11]": {"conditions": "CSF space: 4th Ventricle, Reference"}, "[12]": {"conditions": "CSF space: Foramen Magnum, Reference"}, "[13]": {"conditions": "CSF space: Foramen Magnum, iNPH"}, "[14]": {"conditions": "CSF space: Lateral Ventricle, Reference"}},
  "note": "Marks after values point to notes of the source that are not given here.",
  "data": [
    {"molecule": "O=C([O-])CN1CCN(CC(=O)[O-])CCN([C@H](CO)[C@H](O)CO)CCN(CC(=O)[O-])CC1.[Gd+3]", "note": "(racemic) [gadobutrol]", "values": [
      {"measurement": "Enhancement coefficient (SU/min)", "setting": "[1]", "result": 0.05, "unit": "SU/min"},
      {"measurement": "Max increase (SU)", "setting": "[1]", "result": "7.9 ± 7.9", "unit": "SU"},
      {"measurement": "Time to peak", "setting": "[1]", "result": "1109.8 ± 585.6", "unit": "min"},
      {"measurement": "Enhancement coefficient (SU/min)", "setting": "[2]", "result": 0.04, "unit": "SU/min"},
      {"measurement": "Max increase (SU)", "setting": "[2]", "result": "48.5 ± 32.8^b SU"},
      {"measurement": "Time to peak", "setting": "[2]", "result": "1349.3 ± 350.9", "unit": "min"},
      {"measurement": "Enhancement coefficient (SU/min)", "setting": "[3]", "result": 0.02, "unit": "SU/min"},
      {"measurement": "Max increase (SU)", "setting": "[3]", "result": "23.8 ± 20.9", "unit": "SU"},
      {"measurement": "Time to peak", "setting": "[3]", "result": "1421.3 ± 53.1", "unit": "min"},
      {"measurement": "Enhancement coefficient (SU/min)", "setting": "[4]", "result": 0.03, "unit": "SU/min"},
      {"measurement": "Max increase (SU)", "setting": "[4]", "result": "39.1 ± 25.3", "unit": "SU"},
      {"measurement": "Time to peak", "setting": "[4]", "result": 1358.0, "unit": "min"},
      {"measurement": "Enhancement coefficient (SU/min)", "setting": "[5]", "result": 0.08, "unit": "SU/min"},
      {"measurement": "Time to peak", "setting": "[5]", "result": "929.4 ± 676.9", "unit": "min"},
      {"measurement": "Enhancement coefficient (SU/min)", "setting": "Brain parenchyma: Pons, iNPH", "result": 0.03, "unit": "SU/min"},
      {"measurement": "Time to peak", "setting": "Brain parenchyma: Pons, iNPH", "result": "1090.0 ± 602.3", "unit": "min"},
      {"measurement": "Enhancement coefficient (SU/min)", "setting": "[6]", "result": 0.03, "unit": "SU/min"},
      {"measurement": "Max increase (SU)", "setting": "[6]", "result": "7.8 ± 11.2", "unit": "SU"},
      {"measurement": "Time to peak", "setting": "[6]", "result": "742.8 ± 727.9", "unit": "min"},
      {"measurement": "Enhancement coefficient (SU/min)", "setting": "[7]", "result": 0.04, "unit": "SU/min"},
      {"measurement": "Max increase (SU)", "setting": "[7]", "result": "9.0 ± 8.3", "unit": "SU"},
      {"measurement": "Time to peak", "setting": "[7]", "result": "900.0 ± 686.4", "unit": "min"},
      {"measurement": "Enhancement coefficient (SU/min)", "setting": "[8]", "result": 0.01, "unit": "SU/min"},
      {"measurement": "Max increase (SU)", "setting": "[8]", "result": "9.0 ± 7.1", "unit": "SU"},
      {"measurement": "Time to peak", "setting": "[8]", "result": "1288.4 ± 386.3", "unit": "min"},
      {"measurement": "Enhancement coefficient (SU/min)", "setting": "[9]", "result": 0.01, "unit": "SU/min"},
      {"measurement": "Max increase (SU)", "setting": "[9]", "result": "13.0 ± 6.8", "unit": "SU"},
      {"measurement": "Time to peak", "setting": "[9]", "result": "1261.7 ± 462.6", "unit": "min"},
      {"measurement": "Clearance coefficient (SU/min)", "setting": "[10]", "result": "−0.09 ± 0.08", "unit": "SU/min"},
      {"measurement": "Clearance time", "setting": "[10]", "result": "1135.3 ± 74.2", "unit": "min"},
      {"measurement": "Enhancement coefficient (SU/min)", "setting": "[10]", "result": 0.4, "unit": "SU/min"},
      {"measurement": "Max increase (SU)", "setting": "[10]", "result": "115.1 ± 103.8", "unit": "SU"},
      {"measurement": "Max reduction (SU)", "setting": "[10]", "result": "−103.7 ± 83.9", "unit": "SU"},
      {"measurement": "Time to peak", "setting": "[10]", "result": "253.8 ± 133.2", "unit": "min"},
      {"measurement": "Clearance coefficient (SU/min)", "setting": "CSF space: 3rd Ventricle, iNPH", "result": "−0.10 ± 0.07", "unit": "SU/min"},
      {"measurement": "Clearance time", "setting": "CSF space: 3rd Ventricle, iNPH", "result": "1234.3 ± 116.2", "unit": "min"},
      {"measurement": "Enhancement coefficient (SU/min)", "setting": "CSF space: 3rd Ventricle, iNPH", "result": 1.4, "unit": "SU/min"},
      {"measurement": "Max increase (SU)", "setting": "CSF space: 3rd Ventricle, iNPH", "result": "243.6 ± 136.9^a SU"},
      {"measurement": "Max reduction (SU)", "setting": "CSF space: 3rd Ventricle, iNPH", "result": "−114.4 ± 76.8", "unit": "SU"},
      {"measurement": "Time to peak", "setting": "CSF space: 3rd Ventricle, iNPH", "result": "615.3 ± 587.5", "unit": "min"},
      {"measurement": "Clearance coefficient (SU/min)", "setting": "[11]", "result": "−0.18 ± 0.08", "unit": "SU/min"},
      {"measurement": "Clearance time", "setting": "[11]", "result": "1287.6 ± 105.9", "unit": "min"},
      {"measurement": "Enhancement coefficient (SU/min)", "setting": "[11]", "result": 6.3, "unit": "SU/min"},
      {"measurement": "Max increase (SU)", "setting": "[11]", "result": "236.0 ± 142.9", "unit": "SU"},
      {"measurement": "Max reduction (SU)", "setting": "[11]", "result": "−232.6 ± 103.7", "unit": "SU"},
      {"measurement": "Time to peak", "setting": "[11]", "result": "123.4 ± 98.1", "unit": "min"},
      {"measurement": "Clearance coefficient (SU/min)", "setting": "CSF space: 4th Ventricle, iNPH", "result": "−0.19 ± 0.1", "unit": "SU/min"},
      {"measurement": "Clearance time", "setting": "CSF space: 4th Ventricle, iNPH", "result": "1234.4 ± 109.1", "unit": "min"},
      {"measurement": "Enhancement coefficient (SU/min)", "setting": "CSF space: 4th Ventricle, iNPH", "result": 5.6, "unit": "SU/min"},
      {"measurement": "Max increase (SU)", "setting": "CSF space: 4th Ventricle, iNPH", "result": "386.5 ± 138.2^a SU"},
      {"measurement": "Max reduction (SU)", "setting": "CSF space: 4th Ventricle, iNPH", "result": "−231.6 ± 128.1", "unit": "SU"},
      {"measurement": "Time to peak", "setting": "CSF space: 4th Ventricle, iNPH", "result": "286.7 ± 322.9", "unit": "min"},
      {"measurement": "Clearance coefficient (SU/min)", "setting": "[12]", "result": "−0.28 ± 0.08", "unit": "SU/min"},
      {"measurement": "Clearance time", "setting": "[12]", "result": "1294.4 ± 154.5", "unit": "min"},
      {"measurement": "Enhancement coefficient (SU/min)", "setting": "[12]", "result": 17.7, "unit": "SU/min"},
      {"measurement": "Max increase (SU)", "setting": "[12]", "result": "426.0 ± 123.0", "unit": "SU"},
      {"measurement": "Max reduction (SU)", "setting": "[12]", "result": "−358.1 ± 117.7", "unit": "SU"},
      {"measurement": "Time to peak", "setting": "[12]", "result": "129.4 ± 156.7", "unit": "min"},
      {"measurement": "Clearance coefficient (SU/min)", "setting": "[13]", "result": "−0.16 ± 0.07^b SU/min"},
      {"measurement": "Clearance time", "setting": "[13]", "result": "1264.3 ± 116.1", "unit": "min"},
      {"measurement": "Enhancement coefficient (SU/min)", "setting": "[13]", "result": 5.9, "unit": "SU/min"},
      {"measurement": "Max increase (SU)", "setting": "[13]", "result": "398.3 ± 108.0", "unit": "SU"},
      {"measurement": "Max reduction (SU)", "setting": "[13]", "result": "−206.7 ± 90.8^b SU"},
      {"measurement": "Time to peak", "setting": "[13]", "result": "174.5 ± 94.2", "unit": "min"},
      {"measurement": "Clearance coefficient (SU/min)", "setting": "[14]", "result": "−0.07 ± 0.01", "unit": "SU/min"},
      {"measurement": "Clearance time", "setting": "[14]", "result": "1098.0 ± 12.5", "unit": "min"},
      {"measurement": "Enhancement coefficient (SU/min)", "setting": "[14]", "result": 0.13, "unit": "SU/min"},
      {"measurement": "Max increase (SU)", "setting": "[14]", "result": "42.5 ± 51.9", "unit": "SU"},
      {"measurement": "Max reduction (SU)", "setting": "[14]", "result": "−72.3 ± 11.9", "unit": "SU"},
      {"measurement": "Time to peak", "setting": "[14]", "result": "402.6 ± 446.1", "unit": "min"}
    ]}
  ]
}
